Values quoted from earlier work in patent US20190367449A1, “PHENYLCREATINE, ITS USE AND METHOD FOR ITS PRODUCTION” (priority 2017, published 2019).

Conditions: in vivo; cited from earlier work

For CN(CC(=O)O)C(=N)N.Cl [creatine hydrochloride], the “Relative bioavailability, higher than of creatine monohydrate” value is given as “about 50%”.
